Data: patent US11236069B2, “KIF18A inhibitors” (AMGEN INC., priority 2018, dated 2022)

target: Recombinant human KIF18A (1-467 His-tagged) protein (Homo sapiens (Human), UniProt Q8NI77); assay: KIF18A Enzyme Assay: microtubule-stimulated ATPase activity (ADP-Glo); conditions: read-out: KIF18A ATPase IC50; 30 nM KIF18A, 30 μg/mL pig microtubules, ATP at Km 75 μM, ADP-Glo luminescence
Sequence (Q8NI77 1-467): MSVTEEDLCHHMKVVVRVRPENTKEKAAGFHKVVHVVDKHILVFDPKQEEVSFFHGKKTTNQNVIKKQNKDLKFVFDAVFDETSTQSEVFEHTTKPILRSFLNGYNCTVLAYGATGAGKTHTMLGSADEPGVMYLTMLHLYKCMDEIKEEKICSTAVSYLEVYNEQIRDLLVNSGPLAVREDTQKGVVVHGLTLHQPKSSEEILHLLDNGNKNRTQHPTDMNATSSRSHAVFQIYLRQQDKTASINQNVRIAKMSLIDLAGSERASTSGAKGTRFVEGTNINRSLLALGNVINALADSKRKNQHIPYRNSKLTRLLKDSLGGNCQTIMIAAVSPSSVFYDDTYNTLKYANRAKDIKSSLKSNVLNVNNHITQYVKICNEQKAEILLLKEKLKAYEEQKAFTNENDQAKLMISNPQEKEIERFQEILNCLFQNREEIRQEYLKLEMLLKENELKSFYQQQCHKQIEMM
Sequence (P02550 whole entry partner): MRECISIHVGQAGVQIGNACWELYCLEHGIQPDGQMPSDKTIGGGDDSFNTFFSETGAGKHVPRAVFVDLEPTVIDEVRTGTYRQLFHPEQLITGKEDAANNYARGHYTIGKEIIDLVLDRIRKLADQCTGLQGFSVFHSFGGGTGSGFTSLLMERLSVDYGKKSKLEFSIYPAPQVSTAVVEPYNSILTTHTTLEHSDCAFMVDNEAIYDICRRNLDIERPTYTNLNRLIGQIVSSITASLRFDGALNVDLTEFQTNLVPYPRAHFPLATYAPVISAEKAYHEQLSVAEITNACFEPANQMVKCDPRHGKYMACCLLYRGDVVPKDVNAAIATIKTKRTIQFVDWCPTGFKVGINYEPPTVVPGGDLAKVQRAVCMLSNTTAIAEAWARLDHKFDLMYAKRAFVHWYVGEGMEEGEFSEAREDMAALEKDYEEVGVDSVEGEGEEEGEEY
Sequence (P02554 whole entry partner): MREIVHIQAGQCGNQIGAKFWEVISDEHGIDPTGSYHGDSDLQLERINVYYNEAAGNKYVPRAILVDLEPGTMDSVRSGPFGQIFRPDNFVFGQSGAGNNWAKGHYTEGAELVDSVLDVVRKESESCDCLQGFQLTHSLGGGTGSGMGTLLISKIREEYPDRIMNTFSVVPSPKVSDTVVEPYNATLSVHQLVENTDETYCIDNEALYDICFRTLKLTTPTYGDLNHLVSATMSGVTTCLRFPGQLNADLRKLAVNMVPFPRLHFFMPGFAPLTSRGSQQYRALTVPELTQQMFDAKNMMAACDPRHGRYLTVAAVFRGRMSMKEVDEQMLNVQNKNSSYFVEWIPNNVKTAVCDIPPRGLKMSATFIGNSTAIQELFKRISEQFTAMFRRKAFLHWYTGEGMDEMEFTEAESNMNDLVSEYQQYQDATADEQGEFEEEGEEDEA
Text: KIF18A Enzyme Assay: Microtubule-stimulated ATPase activity assay is used to measure KIF18A enzyme activity after treatment with compound. Compounds were 2-fold serially diluted in DMSO (Sigma Inc) over 22-point concentration range. […] The assay measures ADP formed from the ATPase reaction.

| Structure (SMILES) | IC50 [nM] |
| --- | --- |
| Cc1cc(NC(=O)c2ccc(S(=O)(=O)NCC(C)(C)O)cc2N2CCC3(CC2)CC3)nc(N2CCC(F)(F)CC2)n1 [Example 17-8, N-(2-(4,4-Difluoropiperidin-1-yl)-6-methylpyrimidin-4-yl)-4-(N-(2-hydroxy-2-methylpropyl)sulfamoyl)-2-(6-azaspiro[2.5]octan-6-yl)benzamide] | 286 |
| Cc1cc(NC(=O)c2ccc(S(=N)(=O)C3COC3)cc2N2CCC3(CC2)CC3)nc(N2CCC(F)(F)CC2)n1 (stereo not drawn) [Example 19-1, N-(2-(4,4-Difluoropiperidin-1-yl)-6-methylpyrimidin-4-yl)-4-(oxetane-3-sulfonimidoyl)-2-(6-azaspiro[2.5]octan-6-yl)benzamide] | 163 |
| Cc1cc(NC(=O)c2ccc(S(C)(=N)=O)cc2N2CCC3(CC2)CC3)nc(N2CCC(F)(F)CC2)n1 (stereo not drawn) [Example 19-2, N-(2-(4,4-Difluoropiperidin-1-yl)-6-methylpyrimidin-4-yl)-4-(methylsulfonimidoyl)-2-(6-azaspiro[2.5]octan-6-yl)benzamide] | 438 |
| Cc1cc(NC(=O)c2ccc(S(=N)(=O)C(C)C)cc2N2CCC3(CC2)CC3)nc(N2CCC(F)(F)CC2)n1 (stereo not drawn) [Example 19-5, N-(2-(4,4-Difluoropiperidin-1-yl)-6-methylpyrimidin-4-yl)-4-(propan-2-ylsulfonimidoyl)-2-(6-azaspiro[2.5]octan-6-yl)benzamide] | 175 |
| Cc1cc(NC(=O)c2ccc([S@](=N)(=O)C3CC3)cc2N2CCC3(CC2)CC3)nc(N2CCO[C@H](C)C2)n1 [Example 19-7, 2-(6-Azaspiro[2.5]octan-6-yl)-4-(S-cyclopropylsulfonimidoyl)-N-(6-methy-2-((2R)-2-methyl-4-moprpholinyl)-4-pyrimidinyl)benzamide] | 195 |
| Cc1cc(NC(=O)c2ccc(S(=O)(=O)C3CN(C)C3)cc2N2CCC3(CC2)CC3)nc(N2CCC(F)(F)CC2)n1 [Example 22, N-(2-(4,4-Difluoropiperidin-1-yl)-6-methylpyrimidin-4-yl)-4-((1-methylazetidin-3-yl)sulfonyl)-2-(6-azaspiro[2.5]octan-6-yl)benzamide] | 406 |

Now those with a lower IC50, led by results:

| IC50 [nM] | Structure (SMILES) |
| --- | --- |
| 147 | Cc1cc(NC(=O)c2ccc(S(=O)(=O)N[C@@H](C)CO)cc2N2CCC3(CC2)CC3)nc(N2CCC(F)(F)CC2)n1 [Example 17-7, (S)-N-(2-(4,4-Difluoropiperidin-1-yl)-6-methylpyrimidin-4-yl)-4-(N-(1-hydroxypropan-2-yl)sulfamoyl)-2-(6-azaspiro[2.5]octan-6-yl)benzamide] |
| 78 | CC[S@@](=N)(=O)c1ccc(C(=O)Nc2cc(C)nc(N3CCC(F)(F)CC3)n2)c(N2CCC3(CC2)CC3)c1 [Example 19-3, 2-(6-Azaspiro[2.5]octan-6-yl)-N-(2-(4,4-difluoro-1-pieridinyl)-6-methyl-4-pyrimidinyl)-4-(S-ethylsulfonimidoyl)benzamide] |
| 42 | N=S(=O)(c1ccc(C(=O)Nc2ccnc(N3CCC(F)(F)CC3)c2)c(N2CCC3(CC2)CC3)c1)C1CC1 (stereo not drawn) [Example 19-6, 4-(Cyclopropanesulfonimidoyl)-N-(2-(4,4-difluoropiperidin-1-yl)pyridin-4-yl)-2-(6-azaspiro[2.5]octan-6-yl)benzamide] |
| 78 | Cc1cc(NC(=O)c2ccc([S@@](=N)(=O)C3CC3)cc2N2CCC3(CC2)CC3)nc(N2CCO[C@H](C)C2)n1 [Example 19-8, 2-(6-Azaspiro[2.5]octan-6-yl)-4-(R-cyclopropylsulfonimidoyl)-N-(6-methy-2-((2R)-2-methyl-4-moprpholinyl)-4-pyrimidinyl)benzamide] |
| 69 | Cc1cc(NC(=O)c2ccc(S(=N)(=O)C3CC3)cc2N2CCC3(CC2)CC3)nc(N2CC(F)(F)C2)n1 (stereo not drawn) [Example 19-9, 4-(Cyclopropanesulfonimidoyl)-N-(2-(3,3-difluoroazetidin-1-yl)-6-methylpyrimidin-4-yl)-2-(6-azaspiro[2.5]octan-6-yl)benzamide] |
| 40 | Cc1cc(NC(=O)c2ccc(S(=O)(=O)C3CNC3)cc2N2CCC3(CC2)CC3)nc(N2CCC(F)(F)CC2)n1 [Example 21, 4-(Azetidin-3-ylsulfonyl)-N-(2-(4,4-difluoropiperidin-1-yl)-6-methylpyrimidin-4-yl)-2-(6-azaspiro[2.5]octan-6-yl)benzamide] |
